Measured values: ChEMBL document CHEMBL1201862, “PubChem BioAssay data set” (2004)
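Interpolation was linear, between the two tested concentrations surrounding the appropriate level; five concentrations were tested over 48 hours in 96-well plates. GI50: concentration for 50% inhibition of growth.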 The source made the active and inactive calls. Rule as the data show it: active = GI50 up to about 1.1 µM and inactive = higher.

Columns and labels:
Test in all cases: NCI anticancer screen, dose series, 48 h
HCT-116 = test system: HCT-116
MDA-N = test system: MDA-N
ACHN = test system: ACHN
HCT-15 = test system: HCT-15
PC-3 = test system: PC-3
U-251 = test system: U-251
SW-620 = test system: SW-620
786-0 = test system: 786-0
LOX IMVI = test system: LOX IMVI
SF-295 = test system: SF-295
NCI-H23 = test system: NCI-H23
HOP-62 = test system: HOP-62
RPMI-8226 = test system: RPMI-8226
NCI-H522 = test system: NCI-H522
OVCAR-3 = test system: OVCAR-3
SF-539 = test system: SF-539
OVCAR-5 = test system: OVCAR-5
NCI-H226 = test system: NCI-H226
NCI-H460 = test system: NCI-H460
SR = test system: SR

| Compound | GI50 (HCT-116) | GI50 (MDA-N) | GI50 (ACHN) | GI50 (HCT-15) [µM] | GI50 (PC-3) | GI50 (U-251) | GI50 (SW-620) | GI50 (786-0) | GI50 (LOX IMVI) | GI50 (SF-295) | GI50 (NCI-H23) | GI50 (HOP-62) | GI50 (RPMI-8226) | GI50 (NCI-H522) | GI50 (OVCAR-3) | GI50 (SF-539) | GI50 (OVCAR-5) | GI50 (NCI-H226) | GI50 (NCI-H460) | GI50 (SR) |
| --- | --- | --- | --- | --- | --- | --- | --- | --- | --- | --- | --- | --- | --- | --- | --- | --- | --- | --- | --- | --- |
| OC12COc3ccccc3C1Oc1ccccc1C2 (stereo not given) | > 100 µM (inactive) | > 100 µM (inactive) | > 100 µM (inactive) | > 100 | > 100 µM (inactive) | > 100 µM (inactive) | > 100 µM (inactive) | > 100 µM (inactive) | > 100 µM (inactive) | > 100 µM (inactive) | > 100 µM (inactive) | > 100 µM (inactive) | > 100 µM (inactive) | > 100 µM (inactive) | > 100 µM (inactive) | > 100 µM (inactive) | > 100 µM (inactive) | > 100 µM (inactive) |  |  |
| COc1ccc(OC)c2c1C(=O)C(O)=C(Cl)C2=O | > 100 µM (inactive) | > 100 µM (inactive) | > 100 µM (inactive) | > 100 | > 100 µM (inactive) | > 100 µM (inactive) | > 100 µM (inactive) | > 100 µM (inactive) | > 100 µM (inactive) | > 100 µM (inactive) | > 100 µM (inactive) | > 100 µM (inactive) | > 100 µM (inactive) | > 100 µM (inactive) | > 100 µM (inactive) | > 100 µM (inactive) | > 100 µM (inactive) | > 100 µM (inactive) | > 100 µM (inactive) |  |
| CN(C)CCCNC(=O)CCNC(=O)c1cc(NC(=O)c2cc(NC(=O)c3cc(NC(=O)c4nccn4C)cn3C)cn2C)cn1C | > 100 µM (inactive) | > 100 µM (inactive) | > 100 µM (inactive) | > 100 | > 100 µM (inactive) | 13.4 µM (inactive) | > 100 µM (inactive) | > 100 µM (inactive) | 21.9 µM (inactive) | > 100 µM (inactive) | > 100 µM (inactive) | > 100 µM (inactive) | > 100 µM (inactive) | 5.47 µM (inactive) | > 78.2 µM (inactive) | 54.6 µM (inactive) | > 100 µM (inactive) | > 100 µM (inactive) | > 100 µM (inactive) |  |
| CC(C)(C)OC(=O)NCC(O)CNC(=O)OC(C)(C)C | > 100 µM (inactive) |  | > 100 µM (inactive) | > 100 | > 100 µM (inactive) | > 100 µM (inactive) | > 100 µM (inactive) | > 100 µM (inactive) | > 100 µM (inactive) | > 100 µM (inactive) | > 100 µM (inactive) | > 100 µM (inactive) | > 100 µM (inactive) | > 100 µM (inactive) | > 100 µM (inactive) | > 100 µM (inactive) | > 100 µM (inactive) | > 100 µM (inactive) | > 100 µM (inactive) | > 100 µM (inactive) |
| CC1(C)CC2=C(Sc3ccccc3N2)C(=O)C1C(=O)C(=O)Nc1cccc([N+](=O)[O-])c1 (stereo not given) | > 100 µM (inactive) | > 100 µM (inactive) | > 100 µM (inactive) | > 100 | 75.9 µM (inactive) | > 100 µM (inactive) | > 100 µM (inactive) | > 100 µM (inactive) | > 100 µM (inactive) | > 100 µM (inactive) | > 100 µM (inactive) |  | 64.6 µM (inactive) | > 100 µM (inactive) | 85.5 µM (inactive) | > 100 µM (inactive) | > 100 µM (inactive) | > 100 µM (inactive) | > 100 µM (inactive) |  |
| O=C1CCCc2cc3c(cc21)CC1(Cc2ccccc2C1)C3 | 3.9 µM (inactive) | 1.42 µM (inactive) | 4.55 µM (inactive) | 3.59 | > 100 µM (inactive) | 5.38 µM (inactive) |  | 6.28 µM (inactive) | 6.53 µM (inactive) | 4.03 µM (inactive) | 6.78 µM (inactive) | 6.04 µM (inactive) | 4.35 µM (inactive) | 3.94 µM (inactive) | 2.56 µM (inactive) | 3.89 µM (inactive) | 7.66 µM (inactive) | 2.03 µM (inactive) |  |  |
| CCOC(=O)c1c(N)n(-c2ccccc2)c(=S)n(-c2ccccc2)c1=O |  | > 100 µM (inactive) | > 100 µM (inactive) | > 100 |  | > 100 µM (inactive) | > 100 µM (inactive) | > 100 µM (inactive) | > 100 µM (inactive) | > 100 µM (inactive) | > 100 µM (inactive) |  | > 100 µM (inactive) | > 100 µM (inactive) | > 100 µM (inactive) |  | > 100 µM (inactive) | > 100 µM (inactive) | > 100 µM (inactive) | > 100 µM (inactive) |
| Cc1ccc(S(=O)(=O)N2CCSCCN(S(=O)(=O)c3ccc(C)cc3)CCN(S(=O)(=O)c3ccc(C)cc3)CC2)cc1 | 78.5 µM (inactive) | > 100 µM (inactive) |  |  |  | 20 µM (inactive) | > 100 µM (inactive) | 16.7 µM (inactive) |  | 26.4 µM (inactive) | 79.4 µM (inactive) | 20.7 µM (inactive) | > 100 µM (inactive) |  | > 100 µM (inactive) | 17.6 µM (inactive) | > 100 µM (inactive) | > 100 µM (inactive) | > 100 µM (inactive) |  |
| CC1=C(c2ccccc2)NC(=S)C(C)C(c2ccccc2)=N1 (stereo not given) | 27.5 µM (inactive) | 16.9 µM (inactive) | 11.7 µM (inactive) | 25.8 |  | 55.6 µM (inactive) | 44.1 µM (inactive) | 74.5 µM (inactive) | 30 µM (inactive) | 29.1 µM (inactive) | 9.91 µM (inactive) | > 100 µM (inactive) | 15.4 µM (inactive) |  |  | 16.3 µM (inactive) | > 100 µM (inactive) | 52.4 µM (inactive) | 34.4 µM (inactive) | 22 µM (inactive) |
| COC1OC2COC(=O)c3cc(O)c(O)c(O)c3-c3c(cc(O)c(O)c3O)C(=O)OC2C(O)C1O (stereo not given) | 34.9 µM (inactive) | 24 µM (inactive) | 77.8 µM (inactive) | > 100 | > 100 µM (inactive) | 61.2 µM (inactive) | 21.7 µM (inactive) | 47.4 µM (inactive) | 23.2 µM (inactive) | 18.9 µM (inactive) | > 100 µM (inactive) | 53 µM (inactive) | 55.7 µM (inactive) | 94.8 µM (inactive) | 80 µM (inactive) | > 100 µM (inactive) | 53.8 µM (inactive) | > 100 µM (inactive) | 45.3 µM (inactive) |  |
| COC(=O)[C@H](Cc1ccccc1)NC(=O)N(CCC#N)CCCCN(CCC#N)C(=O)N[C@@H](Cc1ccccc1)C(=O)OC | > 100 µM (inactive) | > 100 µM (inactive) | > 100 µM (inactive) | > 100 | > 100 µM (inactive) | > 100 µM (inactive) | > 100 µM (inactive) | > 100 µM (inactive) | > 100 µM (inactive) | > 100 µM (inactive) | > 100 µM (inactive) | > 100 µM (inactive) | > 100 µM (inactive) | > 100 µM (inactive) | > 100 µM (inactive) |  | > 100 µM (inactive) | > 100 µM (inactive) | > 81.8 µM (inactive) |  |
| COc1ccc(CCN(C)C(=O)CC(C#N)(c2ccccc2)c2ccc(OC)c(OC)c2)cc1OC (stereo not given) | > 100 µM (inactive) | > 100 µM (inactive) | > 100 µM (inactive) | > 100 | > 100 µM (inactive) | > 100 µM (inactive) | > 100 µM (inactive) | > 100 µM (inactive) | > 100 µM (inactive) | > 100 µM (inactive) | > 100 µM (inactive) | > 100 µM (inactive) | > 46.9 µM (inactive) | > 94.6 µM (inactive) | > 100 µM (inactive) | > 100 µM (inactive) | > 100 µM (inactive) | > 100 µM (inactive) | > 100 µM (inactive) |  |
| CCc1c(Cl)c(C)cc(O)c1Cl | 33.5 µM (inactive) | 19.4 µM (inactive) | 22.1 µM (inactive) | 17.8 | 19.6 µM (inactive) | 15.6 µM (inactive) | 20.6 µM (inactive) | 38.2 µM (inactive) | 23.8 µM (inactive) | 33.1 µM (inactive) | 34.8 µM (inactive) | > 100 µM (inactive) | 24.1 µM (inactive) | 30.7 µM (inactive) | 52 µM (inactive) | 23 µM (inactive) | > 100 µM (inactive) | 20.9 µM (inactive) | 32.7 µM (inactive) |  |
| O=C1OC(=O)C2CCCC3CCCC1C32 (stereo not given) | > 100 µM (inactive) | > 100 µM (inactive) | > 100 µM (inactive) | > 100 | > 100 µM (inactive) | > 100 µM (inactive) | > 100 µM (inactive) | > 100 µM (inactive) | > 100 µM (inactive) | > 100 µM (inactive) | > 100 µM (inactive) | > 100 µM (inactive) | > 100 µM (inactive) | > 100 µM (inactive) | > 100 µM (inactive) | > 100 µM (inactive) | > 100 µM (inactive) | > 100 µM (inactive) | > 100 µM (inactive) |  |
| Nc1ncnc2c1ccn2COC(CO)CO | > 100 µM (inactive) | > 100 µM (inactive) | > 100 µM (inactive) | > 100 | > 100 µM (inactive) | > 100 µM (inactive) | > 100 µM (inactive) | > 100 µM (inactive) | > 100 µM (inactive) | > 100 µM (inactive) | > 100 µM (inactive) | > 100 µM (inactive) | 97.1 µM (inactive) | 54.7 µM (inactive) | > 100 µM (inactive) | > 100 µM (inactive) | > 100 µM (inactive) | 46.2 µM (inactive) | > 100 µM (inactive) |  |
